Source: EP4610269A1, “UROKINASE PLASMINOGEN ACTIVATOR SURFACE RECEPTOR (UPAR) LIGANDS FOR DIAGNOSTIC OR THERAPEUTIC USE” (3B Pharmaceuticals GmbH, priority 2024, dated 2025)
*1 amine or outer side, *2 acyl side, *3 side chain or, on linkers, in order; H or OH if unused. Where a SMILES comes first, the peptide text is derived from it. Bridges are numbered along the chain shown (N, C = ends). [ ]: non-standard residue; d: D form. The star is where a group is joined. Acetyl(4-DOTA-piperazinyl) = O=C(O)CN1CCN(CC(=O)O)CCN(CC(=O)N2CCN(CC(=O)*)CC2)CCN(CC(=O)O)CC1; DOTA = O=C(O)CN1CCN(CC(=O)O)CCN(CC(=O)*)CCN(CC(=O)O)CC1; Phe(4-SO3H) = N[C@@H](Cc1ccc(S(=O)(=O)O)cc1)C(=O)O; Pro(trans-4-F) = O=C(O)[C@@H]1C[C@@H](F)CN1; Phe(4-Cl) = N[C@@H](Cc1ccc(Cl)cc1)C(=O)O; Pro(cis-4-F) = O=C(O)[C@@H]1C[C@H](F)CN1; Dopa = N[C@@H](Cc1ccc(O)c(O)c1)C(=O)O; Cyclopentanecarbonyl = O=C(C1CCCC1)*; cisHyp = O=C(O)[C@@H]1C[C@H](O)CN1; Hyp = O=C(O)[C@@H]1C[C@@H](O)CN1; 3Pal = N[C@@H](Cc1cccnc1)C(=O)O; Pentanoyl(4-Me) = CC(C)CCC(=O)*; Cit = NC(=O)NCCC[C@H](N)C(=O)O; Butoxycarbonyl = CCCCOC(=O)*; Phg = N[C@H](C(=O)O)c1ccccc1; Tle = CC(C)(C)[C@H](N)C(=O)O; hCys = N[C@@H](CCS)C(=O)O; Nle = CCCC[C@H](N)C(=O)O; dNMeA = CN[C@H](C)C(=O)O; Nva = CCC[C@H](N)C(=O)O; Hexanoyl = CCCCCC(=O)*; Pentanoyl = CCCCC(=O)*; CO = O=C([*:1])[*:2]; X7 = CCCOCC(=O)*; NHPr = CCCN*

Key:
[1] = molecular target: T1, uPAR-expressing HEC-265 human endometrial adenocarcinoma cells (Homo sapiens, UniProt Q03405); experiment: Competitive FACS binding assay; details: pIC50 category of FACS binding
T1 construct: Cell surface uPAR-expressing HEC-265 human endometrial adenocarcinoma cells; host or cells: HEC-265
Procedure, shortened: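 Competitive displacement of a 10 nM biotinylated peptide from HEC-265 cells (1 h, 4 °C, PBS/1% BSA), detected via APC-streptavidin by flow cytometry. pIC50 from four-parameter logistic fit of median fluorescence versus concentration.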

human uPAR (uPAR-Fc) = molecular target: T2, human uPAR (uPAR-Fc) (Homo sapiens, UniProt Q03405); experiment: Surface plasmon resonance (SPR) assay, single cycle kinetics; assay type: binding; details: pKD category for uPAR SPR activity assay; uPAR-Fc on Protein A-Chip, 25°C; read-out: pKD CAT (converted)
T2 construct: comprising amino acids Leu23-Arg303 according to UniProt entry Q03405.1; purchased R&D Systems 10378-UK-100
Procedure, shortened: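 uPAR-Fc (Leu23-Arg303 extracellular domains, human IgG1 Fc) captured on Protein A chip to ~2000 RU; single-cycle kinetics at 25°C in HEPES running buffer pH 7.4 with 0.1% DMSO. KD from double-referenced sensorgrams fitted to 1:1 Langmuir model, reported as pKD.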

T2 sequence (Q03405 23-303): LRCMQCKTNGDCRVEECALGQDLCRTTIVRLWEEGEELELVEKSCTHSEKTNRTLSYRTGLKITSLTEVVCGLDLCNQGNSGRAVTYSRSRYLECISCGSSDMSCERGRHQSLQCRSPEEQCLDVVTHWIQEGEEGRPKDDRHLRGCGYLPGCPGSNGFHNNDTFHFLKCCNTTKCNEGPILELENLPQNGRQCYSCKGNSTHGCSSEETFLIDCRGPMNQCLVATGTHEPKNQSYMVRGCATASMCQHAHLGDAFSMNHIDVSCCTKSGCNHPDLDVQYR
T1 sequence (Q03405 23-335): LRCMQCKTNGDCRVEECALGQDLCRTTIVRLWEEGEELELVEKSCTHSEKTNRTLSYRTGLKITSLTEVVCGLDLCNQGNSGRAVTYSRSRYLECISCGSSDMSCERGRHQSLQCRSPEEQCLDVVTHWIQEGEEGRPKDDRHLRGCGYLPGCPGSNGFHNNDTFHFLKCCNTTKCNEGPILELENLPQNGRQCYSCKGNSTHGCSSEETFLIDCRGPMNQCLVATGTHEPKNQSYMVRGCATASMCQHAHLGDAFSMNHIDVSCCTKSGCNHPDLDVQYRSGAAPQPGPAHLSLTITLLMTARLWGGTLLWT

Structure (SMILES) | IC50 [1] [nM] | Kd (human uPAR (uPAR-Fc)) [nM]
CCCC[C@@H]1NC(=O)[C@H](CCCNC(=N)N)NC(=O)[C@@H](NC(=O)[C@H](CC(C)C)NC(=O)[C@H](CC(=O)O)NC(C)=O)CSSC[C@@H](C(N)=O)NC(=O)[C@H](CC(C)C)NC(=O)[C@H]([C@@H](C)CC)NC(=O)[C@H](C)NC(=O)[C@@H]2CCCN2C(=O)[C@H](Cc2ccccc2)NC(=O)[C@@H](Cc2ccc(O)cc2)NC1=O [UPAR-198, Ac-Asp-Leu-[Cys-Arg-Nle-tyr-Phe-Pro-Ala-Ile-Leu-Cys]-NH2] (Ac-DLCR[Nle][dY]FPAILC-NH2; disulfide 3-12) | ≥ 126 | > 100
CCCCOC(=O)N[C@H]1CSSC[C@@H](C(N)=O)NC(=O)[C@H](CCC)NC(=O)[C@H]([C@@H](C)CC)NC(=O)[C@@H]2C[C@@H](O)CN2C(=O)[C@@H]2C[C@H](F)CN2C(=O)[C@H](Cc2ccccc2)NC(=O)[C@H](Cc2ccc(O)c(O)c2)NC(=O)[C@H](CCCCNC(=O)CN2CCN(C(=O)CN3CCN(CC(=O)O)CCN(CC(=O)O)CCN(CC(=O)O)CC3)CC2)NC(=O)[C@H]([C@@H](C)O)NC1=O [UPAR-199, Butoc-[Cys-Thr-Lys(DOTA-PPAc)-Dopa-Phe-4Cfp-Hyp-Ile-Nva-Cys]-NH2] (Butoxycarbonyl-CTK(Acetyl(4-DOTA-piperazinyl))[Dopa]F[Pro(cis-4-F)][Hyp]I[Nva]C-NH2; disulfide 1-10) | ≤ 10 | < 1.58
CC(C)CCC(=O)N[C@H]1CSSC[C@@H](C(N)=O)NC(=O)[C@H](CC(C)C)NC(=O)[C@H](C(C)(C)C)NC(=O)[C@@H](C)NC(=O)[C@@H]2CCCN2C(=O)[C@H](Cc2ccccc2)NC(=O)[C@H](Cc2ccc(O)cc2)NC(=O)[C@H](CCC(N)=O)NC(=O)[C@H](CCCNC(N)=O)NC1=O [UPAR-201, iHex-[Cys-Cit-Gln-Tyr-Phe-Pro-ala-Tle-Leu-Cys]-NH2] ({Pentanoyl(4-Me)}-C[Cit]QYFP[dA][Tle]LC-NH2; disulfide 1-10) | 39.8 to 100 | 10 to 100
CCCCCC(=O)N[C@@H](CO)C(=O)N[C@@H](CC(C)C)C(=O)N[C@H]1CSSC[C@@H](C(N)=O)NC(=O)[C@H](CC(C)C)NC(=O)[C@H]([C@@H](C)CC)NC(=O)[C@H](C)NC(=O)[C@@H]2CCCN2C(=O)[C@H](Cc2ccccc2)NC(=O)[C@H](Cc2ccccc2)NC(=O)[C@H](CCC(N)=O)NC(=O)[C@H](CC(=O)O)NC1=O [UPAR-202, Hex-Ser-Leu-[Cys-Asp-Gln-Phe-Phe-Pro-Ala-Ile-Leu-Cys]-NH2] (Hexanoyl-SLCDQFFPAILC-NH2; disulfide 3-12) | ≤ 10 | < 1.58
CCCCC(=O)N[C@H]1CSSC[C@@H](C(N)=O)NC(=O)[C@H](CCC)NC(=O)[C@H]([C@@H](C)CC)NC(=O)[C@@H]2C[C@@H](O)CN2C(=O)[C@@H]2CCCN2C(=O)[C@H](c2ccccc2)NC(=O)[C@H](Cc2ccc(O)cc2)NC(=O)[C@H](CCC(N)=O)NC(=O)[C@H](CCCNC(=N)N)NC1=O [UPAR-203, Pent-[Cys-Arg-Gln-Tyr-Phg-Pro-Hyp-Ile-Nva-Cys]-NH2] (Pentanoyl-CRQY[Phg]P[Hyp]I[Nva]C-NH2; disulfide 1-10) | ≥ 126 | 10 to 100
CCCCC(=O)N[C@H]1CSSC[C@@H](C(N)=O)NC(=O)[C@H](CCC)NC(=O)[C@H](Cc2ccc(Cl)cc2)NC(=O)[C@@H]2C[C@@H](O)CN2C(=O)[C@@H]2CCCN2C(=O)[C@H](Cc2ccccc2)NC(=O)[C@H](Cc2ccc(O)cc2)NC(=O)[C@H](CCC(N)=O)NC(=O)[C@H](CCCNC(=N)N)NC1=O [UPAR-204, Pent-[Cys-Arg-Gln-Tyr-Phe-Pro-Hyp-Pcf-Nva-Cys]-NH2] (Pentanoyl-CRQYFP[Hyp][Phe(4-Cl)][Nva]C-NH2; disulfide 1-10) | ≤ 10 | < 1.58
CCCCC(=O)N[C@@H](C)C(=O)N[C@@H](CCCNC(N)=O)C(=O)N[C@@H](CCC(N)=O)C(=O)N[C@@H](Cc1ccc(O)cc1)C(=O)N[C@@H](Cc1ccccc1)C(=O)N1CCC[C@H]1C(=O)N1C[C@H](O)C[C@H]1C(=O)N[C@H](C(=O)N[C@@H](CCC)C(=O)N[C@@H](CSC)C(N)=O)[C@@H](C)CC [UPAR-205, Pent-Ala-Cit-Gln-Tyr-Phe-Pro-Hyp-Ile-Nva-Smc-NH2] (Pentanoyl-A[Cit]QYFP[Hyp]I[Nva]C(Me)-NH2) | ≥ 126 | > 100
CCCCC(=O)N[C@H]1CSSC[C@@H](C(=O)NCC(N)=O)NC(=O)[C@H](CCC)NC(=O)[C@H]([C@@H](C)CC)NC(=O)[C@@H]2C[C@@H](O)CN2C(=O)[C@@H]2CCCN2C(=O)[C@H](Cc2ccccc2)NC(=O)[C@H](Cc2ccc(O)cc2)NC(=O)[C@H](CCC(N)=O)NC(=O)[C@H](CCCNC(N)=O)NC1=O [UPAR-206, Pent-[Cys-Cit-Gln-Tyr-Phe-Pro-Hyp-Ile-Nva-Cys]-Gly-NH2] (Pentanoyl-C[Cit]QYFP[Hyp]I[Nva]CG-NH2; disulfide 1-10) | 12.6 to 31.6 | 1.58 to 10
CCCCC(=O)N[C@H]1CSSC[C@@H](C(N)=O)NC(=O)[C@H](CCC)NC(=O)[C@H]([C@@H](C)CC)NC(=O)[C@@H]2C[C@@H](F)CN2C(=O)[C@@H]2CCCN2C(=O)[C@H](Cc2cccnc2)NC(=O)[C@H](Cc2ccc(O)cc2)NC(=O)[C@H](CCCCNC(=O)CN2CCN(CC(=O)O)CCN(CC(=O)O)CCN(CC(=O)O)CC2)NC(=O)[C@H](CCCNC(N)=O)NC1=O [UPAR-207, Pent-[Cys-Cit-Lys(DOTA)-Tyr-Mpa-Pro-4Tfp-Ile-Nva-Cys]-NH2] (Pentanoyl-C[Cit]K(DOTA)Y[3Pal]P[Pro(trans-4-F)]I[Nva]C-NH2; disulfide 1-10) | ≤ 10 | 1.58 to 10
CC[C@H](C)[C@@H]1NC(=O)[C@@H](C)NC(=O)[C@@H]2CCCN2C(=O)[C@H](Cc2ccccc2)NC(=O)[C@H](Cc2ccc(O)cc2)NC(=O)[C@H](CCC(N)=O)NC(=O)[C@H](CCCNC(N)=O)NC(=O)[C@@H](NC(=O)C2CCCC2)CSSC[C@@H](C(N)=O)NC(=O)[C@H](CC(C)C)NC1=O [UPAR-208, Cp-[Cys-Cit-Gln-Tyr-Phe-Pro-ala-Ile-Leu-Cys]-NH2] (Cyclopentanecarbonyl-C[Cit]QYFP[dA]ILC-NH2; disulfide 1-10) | ≤ 10 | < 1.58
CCCCC(=O)N[C@H]1CSSC[C@@H](C(N)=O)NC(=O)[C@H](CCC)NC(=O)[C@H]([C@@H](C)CC)NC(=O)[C@@H]2C[C@@H](O)CN2C(=O)[C@@H]2CCCN2C(=O)[C@H](Cc2ccccc2)NC(=O)[C@H](Cc2ccc(S(=O)(=O)O)cc2)NC(=O)[C@H](CCCCNC(=O)CN2CCN(CC(=O)O)CCN(CC(=O)O)CCN(CC(=O)O)CC2)NC(=O)[C@H](CCCNC(N)=O)NC1=O [UPAR-209, Pent-[Cys-Cit-Lys(DOTA)-Fso-Phe-Pro-Hyp-Ile-Nva-Cys]-NH2] (Pentanoyl-C[Cit]K(DOTA)[Phe(4-SO3H)]FP[Hyp]I[Nva]C-NH2; disulfide 1-10) | ≤ 10 | 1.58 to 10
CCCNC(=O)N[C@H]1CSSC[C@@H](C(N)=O)NC(=O)[C@H](CCC)NC(=O)[C@H]([C@@H](C)CC)NC(=O)[C@@H]2C[C@@H](O)CN2C(=O)[C@@H]2CCCN2C(=O)[C@H](Cc2ccccc2)NC(=O)[C@H](Cc2ccc(O)cc2)NC(=O)[C@H](CCCCNC(=O)CN2CCN(CC(=O)O)CCN(CC(=O)O)CCN(CC(=O)O)CC2)NC(=O)[C@H](CCCNC(N)=O)NC1=O [UPAR-210, PrCAyl-[Cys-Cit-Lys(DOTA)-Tyr-Phe-Pro-Hyp-Ile-Nva-Cys]-NH2] ({NHPr-CO}-C[Cit]K(DOTA)YFP[Hyp]I[Nva]C-NH2; disulfide 1-10) | ≤ 10 | < 1.58
CCCCC(=O)N[C@H]1CSSC[C@@H](C(N)=O)NC(=O)[C@H](CCC)NC(=O)[C@H]([C@@H](C)CC)NC(=O)[C@@H]2C[C@@H](O)CN2C(=O)[C@@H](C)N(C)C(=O)[C@H](Cc2ccccc2)NC(=O)[C@H](Cc2ccc(O)cc2)NC(=O)[C@H](CCC(N)=O)NC(=O)[C@H](CCCNC(=N)N)NC1=O [UPAR-211, Pent-[Cys-Arg-Gln-Tyr-Phe-nma-Hyp-Ile-Nva-Cys]-NH2] (Pentanoyl-CRQYF[dNMeA][Hyp]I[Nva]C-NH2; disulfide 1-10) | ≥ 126 | > 100
CCCOCC(=O)N[C@H]1CSSC[C@@H](C(N)=O)NC(=O)[C@H](CC(C)C)NC(=O)[C@H]([C@@H](C)CC)NC(=O)[C@@H](C)NC(=O)[C@@H]2CCCN2C(=O)[C@H](Cc2ccccc2)NC(=O)[C@H](Cc2ccc(O)cc2)NC(=O)[C@H](CCC(N)=O)NC(=O)[C@H](CCCNC(N)=O)NC1=O [UPAR-212, PrOAc-[Cys-Cit-Gln-Tyr-Phe-Pro-ala-Ile-Leu-Cys]-NH2] (X7-C[Cit]QYFP[dA]ILC-NH2; disulfide 1-10) | 12.6 to 31.6 | 10 to 100
CCCCC(=O)N[C@H]1CSSCC[C@@H](C(N)=O)NC(=O)[C@H](CCC)NC(=O)[C@H]([C@@H](C)CC)NC(=O)[C@@H]2C[C@@H](O)CN2C(=O)[C@@H]2CCCN2C(=O)[C@H](Cc2ccccc2)NC(=O)[C@H](Cc2ccc(O)cc2)NC(=O)[C@H](CCC(N)=O)NC(=O)[C@H](CCCNC(=N)N)NC1=O [UPAR-213, Pent-[Cys-Arg-Gln-Tyr-Phe-Pro-Hyp-Ile-Nva-Hcy]-NH2] (Pentanoyl-CRQYFP[Hyp]I[Nva][hCys]-NH2; disulfide 1-10) | ≤ 10 | 1.58 to 10
CCCCC(=O)N[C@H]1CSSC[C@@H](C(N)=O)NC(=O)[C@H](CCC)NC(=O)[C@H]([C@@H](C)CC)NC(=O)[C@@H]2C[C@H](O)CN2C(=O)[C@@H]2CCCN2C(=O)[C@H](Cc2ccccc2)NC(=O)[C@H](Cc2ccc(O)cc2)NC(=O)[C@H](CCCCNC(=O)CN2CCN(CC(=O)O)CCN(CC(=O)O)CCN(CC(=O)O)CC2)NC(=O)[C@H](CCCNC(N)=O)NC1=O [UPAR-214, Pent-[Cys-Cit-Lys(DOTA)-Tyr-Phe-Pro-Chy-Ile-Nva-Cys]-NH2] (Pentanoyl-C[Cit]K(DOTA)YFP[cisHyp]I[Nva]C-NH2; disulfide 1-10) | ≤ 10 | < 1.58
